Results from patent US20160263131A1, “TREATMENT OF HEPATIC FIBROSIS USING AN INHIBITOR OF CBP/CATENIN” (priority 2013, published 2016).

Assays:
Assay type in all cases: in vivo, C57BL/6J mice
NASH mice [1] = assay: Serum TG in NASH mice; conditions: mean±SD
Experimental: Non-fasting blood glucose was measured in whole blood using Life Check (EIDIA, Japan). For serum biochemistry, blood was collected in polypropylene tubes without anticoagulant and kept at room temperature for 30 minutes, followed by at 4° C. for 1 hour. The blood samples were then centrifuged at 1,000×g for 15 minutes at 4° C. The supernatant was collected and stored at −80° C. until use. Serum ALT and TG levels were measured by FUJI DRI-CHEM 7000 (Fujifilm, Japan).

NASH mice [2] = assay: Liver TG content in NASH mice; conditions: mean±SD, Vehicle 58.8±26.9, no significant difference
Experimental: Liver total lipid-extracts were obtained from right lobes by Folch's method (Folch J. et al, J. Biol. Chem. 1957; 226 (1): 497). The livers were homogenized in chloroform-methanol (2:1, v/v) and incubated overnight at room temperature. After washing with chloroform-methanol-water (8:4:3, v/v/v), the extracts were evaporated to dryness, and dissolved in isopropanol. Liver TG levels were measured by Triglyceride E-test (Wako Pure Chemical Industries). Extracts were diluted 2- to 4-fold in isopropanol when the TG contents exceed the limit of detection.

α-SMA = assay: Quantitative RT-PCR of liver, α-SMA mRNA, NASH mice; conditions: 13 weeks of age, mean ± SD
Experimental: Total RNA was extracted from liver samples using RNAiso (Takara Bio, Japan) according to the manufacturer's instructions. One μg of RNA was reverse-transcribed using a reaction mixture containing 4.4 mM MgCl2 (Roche, Switzerland), 40 U RNase inhibitor (Toyobo, Japan), 0.5 mM dNTP (Promega, USA), 6.28 μM random hexamer (Promega), 5× first strand buffer (Promega), 10 mM dithiothreitol (Invitrogen, USA) and 200 U MMLV-RT (Invitrogen) in a final volume of 20 μL. The reaction was carried out for 1 hour at 37° C., followed by 5 minutes at 99° C. Real-time PCR was performed using real-time PCR DICE and SYBR premix Taq (Takara Bio). To calculate the relative mRNA expression level, the expression of each gene was normalized to that of reference gene 36B4 (gene symbol: Rplp0). Information of PCR-primer sets and the plate layout was described in Table 1.

C[C@H]1[C@H]2N(C(=O)CN(C)N2C(=O)NCc2ccccc2)[C@@H](Cc2ccc(OP(=O)(O)O)cc2)C(=O)N1Cc1cccc2cccnc12 [Compound A, 4-(((6S,9S,9aS)-1-(benzylcarbamoyl)-2,9-dimethyl-4,7-dioxo-8-(quinolin-8-ylmethyl)octahydro-1H-pyrazino[2,1-c][1,2,4]triazin-6-yl)methyl)phenyl dihydrogen phosphate]
Serum TG (NASH mice [1]; high dose 3 mg/kg/day s.c. infusion 9-13 wks, Vehicle 391±175, increased): 1145 ± 580 mg/dL | Serum TG (NASH mice [1]; low dose 1 mg/kg/day s.c. infusion 9-13 wks, Vehicle 391±175, no significant difference): 815 ± 754 mg/dL | Liver TG content (NASH mice [2]; high dose 3 mg/kg/day s.c. infusion 9-13 wks): 67.8 ± 24.0 mg/g | Liver TG content (NASH mice [2]; low dose 1 mg/kg/day s.c. infusion 9-13 wks): 64.8 ± 25.6 mg/g | α-SMA mRNA expression level (relative, normalized to 36B4) (α-SMA; high dose 3 mg/kg/day s.c. infusion 9-13 wks, n = 8, Vehicle 3.19 ± 1.81, no significant difference, 3 mg/kg/day): 2.23±1.23 | α-SMA mRNA expression level (relative, normalized to 36B4) (α-SMA; low dose 1 mg/kg/day s.c. infusion 9-13 wks, n = 8, Vehicle 3.19 ± 1.81, tended to be down-regulated, 1 mg/kg/day): 1.88±0.60
